From ChEMBL document CHEMBL1151640, “Benzoxazolinone, 2,4-Dihydroxy-1,4-benzoxazin-3-one, and Its Glucoside from Acanthus mollis Seeds Inhibit Velvetleaf Germination and Growth” (1985)

Columns and labels:
Abutilon theophrasti [1] = experiment: Phytotoxicity against Abutilon theophrasti assessed as seed germination at 5 mM after 2 days relative to control; format: functional
Abutilon theophrasti [2] = experiment: Phytotoxicity against Abutilon theophrasti assessed as seed germination at 1 mM after 4 days relative to control; format: functional
Abutilon theophrasti [3] = experiment: Phytotoxicity against Abutilon theophrasti assessed as seed germination at 0.8 mM after 2 days relative to control; format: functional
Abutilon theophrasti [4] = experiment: Phytotoxicity against Abutilon theophrasti assessed as seed germination at 0.6 mM after 2 days relative to control; format: functional
Abutilon theophrasti [5] = experiment: Phytotoxicity against Abutilon theophrasti assessed as seed germination at 0.8 mM after 4 days relative to control; format: functional
Abutilon theophrasti [6] = experiment: Phytotoxicity against Abutilon theophrasti assessed as seed germination at 2 mM after 2 weeks; format: functional, organism-based
Abutilon theophrasti [7] = experiment: Phytotoxicity against Abutilon theophrasti assessed as seed germination at 1 mM after 2 days relative to control; format: functional
Abutilon theophrasti [8] = experiment: Phytotoxicity against Abutilon theophrasti assessed as seed germination at 2 mM after 4 days relative to control; format: functional
Abutilon theophrasti [9] = experiment: Phytotoxicity against Abutilon theophrasti assessed as seed germination at 0.6 mM after 4 days relative to control; format: functional
Abutilon theophrasti [10] = experiment: Phytotoxicity against Abutilon theophrasti assessed as seed germination at 2 mM after 2 days relative to control; format: functional
Abutilon theophrasti [11] = experiment: Phytotoxicity against Abutilon theophrasti assessed as seed germination at 0.5 mM after 4 days relative to control; format: functional
Abutilon theophrasti [12] = experiment: Phytotoxicity against Abutilon theophrasti assessed as seed germination at 0.5 mM after 2 days relative to control; format: functional
Abutilon theophrasti [13] = experiment: Phytotoxicity against Abutilon theophrasti assessed as seed germination at 5 mM after 4 days relative to control; format: functional

Row | Structure (SMILES) | Activity (Abutilon theophrasti [1]) [%] | Activity (Abutilon theophrasti [2]) [%] | Activity (Abutilon theophrasti [3]) [%] | Activity (Abutilon theophrasti [4]) [%] | Activity (Abutilon theophrasti [5]) [%] | Activity (Abutilon theophrasti [6]) | Activity (Abutilon theophrasti [7]) [%] | Activity (Abutilon theophrasti [8]) [%] | Activity (Abutilon theophrasti [9]) [%] | Activity (Abutilon theophrasti [10]) [%] | Activity (Abutilon theophrasti [11]) [%] | Activity (Abutilon theophrasti [12]) [%] | Activity (Abutilon theophrasti [13]) [%]
1 | O=C1C(O[C@@H]2O[C@H](CO)[C@@H](O)[C@H](O)[C@H]2O)Oc2ccccc2N1O (stereo partly specified) | 89 |  |  |  |  |  |  |  |  |  |  |  | 
2 | O=C1C(O)Oc2ccccc2N1O (stereo unspecified) |  | 72 | 40 | 59 | 82 | Toxic | 6 | 0 | 97 | 0 |  |  | 
3 | O=c1[nH]c2ccccc2o1 [BENZOXAZOLINONE] | 14 | 116 |  |  |  |  | 111 |  |  |  | 125 | 118 | 75
